Assay results: paper PMC10245146, “CNS4 causes subtype‐specific changes in agonist efficacy and reversal potential of permeant cations in NMDA receptors” (Pharmacology Research & Perspectives, 2023)

System: GluN1/2AB receptors
Assay: Whole-cell patch-clamp, HEK293T cells expressing recombinant GluN1/2AB
Assay type: cell-based
Details: 100 μM CNS4 applied 4 s before and with 100 μM glutamate + 100 μM glycine; agonist alone −546 ± 32.34 pA; n = 8(4), p = .023
Method: Whole‐cell patch‐clamp electrophysiology studies were carried out in HEK‐293T cells expressing recombinant NMDA receptors that lack native functional NMDA receptors.[29], [30], [31] An equal quantity of (1 μg) cDNA for GluN1a, GluN2 subunits were co‐transfected 24‐48 h before patch‐clamp electrophysiology assay. […] Cells were carefully washed before performing experiments and were used for the electrophysiology experiments after 24 to 48 h incubation at 37°C with 5%CO2. The whole‐cell patch‐clamp electrophysiology assay was performed using semi‐automated patch‐clamp equipment, Port‐a‐Patch (Nanion Technologies GmbH). Following are the constituents of various solutions used for patch‐clamp electrophysiology: internal solution ([mM] NaCl 10, EGTA 20, CsF 110, HEPES 10), Mg‐free external (recording) solution ([mM] NaCl 140, KCl 4, CaCl2 2, HEPES 10, D‐GlucoseMonohydrate 5), and Mg‐free seal enhancer solution ([mM] NaCl 80, KCl 3, CaCl2 35, HEPES 10). Nanion NPC chips with […] resistance were used for the HEK‐293T cell recordings.
FIGURE 1 CNS4 sensitizes ambient concentration of agonists in GluN2 subunit dependent manner. […] Statistical significance was calculated from the Wilcoxon matched‐pairs signed rank test, except the comparison between 1/2A & 1/2AB CNS4 with no agonist data, which was done by unpaired t‐test. […]

O=C(NC(=S)N1CCCCC1c1cccnc1)c1ccc(F)cc1 (stereo not shown) [CNS4]
Peak current amplitude: –380.7 ± 36.61 pA
